Assay results taken from patent US8440810B2, “Riboswitches, methods for their use, and compositions for use with riboswitches” (Yale University, priority 2002, dated 2013).
Entries after “also recorded” stand apart in the source; their conditions may differ. Read-outs that look alike come from different tables or passages of the source. Values belong to the compound of their own block, whether it stands above or below them.

What was measured:
[1] = target: btuB mRNA leader mutants m4 and m5; assay type: binding, Escherichia coli; settings: mutants m4 and m5 (possible P4/P9 pseudoknot)
[2] = system: 202-nucleotide mRNA leader (btuB); experiment: Equilibrium dialysis with btuB mRNA leader
[3] = target: 202-nucleotide leader sequence of the btuB mRNA; assay type: binding, Escherichia coli; settings: half-maximal structural modulation, 25° C., 20 mM MgCl2, pH 8.3; read-out: apparent KD
Protocol: Precursor mRNA leader molecules were prepared by in vitro transcription from templates generated by PCR (see In vivo Expression Constructs and Assays section below) and 5′ ^32p-labeled using methods described previously (Soukup and Breaker, Allosteric nucleic acid catalysts. Curr. Opin. Struct. Biol. 10, […] (2000)). Approximately 20 nM of labeled RNA precursor was incubated as described in the brief description of FIG. 1. Accompanying digestions were carried out using reaction conditions similar to those described previously (Soukup and Breaker, Relationship between internucleotide linkage geometry and the stability of […]. RNA 5, 1308-1325 (1999)). […]
Metabolite-dependent conformational changes in the 202-nucleotide leader sequence of the btuB mRNA. […] The image was generated using a phosphorimager (Molecular Dynamics), and cleavage yields were quantitated by using ImageQuant software. […]
The btuB mRNA leader forms a saturable binding site for AdoCbl. […] 5′-^32P-labeled mRNA leader molecules were incubated, separated, and analyzed as described in the in the legend to FIG. 1A, and include identical control and marker lanes as indicated. […] Fraction cleaved values were normalized relative to the highest and lowest cleavage values measured for each location, including the values obtained upon incubation in the absence of AdoCbl. […]

btuB leader-lacZ fusion = experiment: btuB-lacZ expression assay; assay type: cell-based, E. coli; settings: wild-type btuB leader
ribD leader region = experiment: In vitro transcription of ribD leader region; assay type: biochemical; settings: T7 or B. subtilis RNA polymerase, no additional protein factors
ribD RNA = experiment: In-line probing of ribD RNA (RFN element); assay type: binding, B. subtilis; settings: read-out: apparent KD
[4] = system: lysC 5′-UTR fused to lacZ reporter gene; assay type: cell-based, B. subtilis; settings: wild-type construct, minimal medium plus 1 mM compound
lysC 5′-UTR template = experiment: In vitro transcription termination assay, lysC 5′-UTR; settings: 10 mM ligand, E. coli RNA polymerase, single-round
179 lysC RNA [5] = assay type: binding, B. subtilis
179 lysC RNA [6] = experiment: In-line probing of 179 lysC RNA; settings: read-out: apparent KD; half-maximal structural modulation
[7] = target: RNA construct encompassing nucleotides 1 through 315 of the lysC 5′-UTR; settings: read-out: apparent KD; aptamer plus expression platform
124 yitJ RNA = experiment: In-line probing of 124 yitJ RNA; assay type: binding, B. subtilis; settings: minimized aptamer domain
metI leader construct = assay type: biochemical, B. subtilis
[8] = system: aptamer domain from B. subtilis cysH; assay type: binding
251 yitJ RNA = assay type: binding, B. subtilis
[9] = system: yitJ, yoaD and metK leader constructs; experiment: In vitro transcription termination with T7 RNA polymerase, yitJ, yoaD and metK leaders; settings: 50 μM
91 thiM RNA = assay type: binding, E. coli
Description: (§1) Specifically, TPP-dependent modulation of the spontaneous cleavage of RNA constructs was visualized by polyacrylamide gel electrophoresis (PAGE). […] Some RNAs were subjected to no reaction, partial digestion with alkali, or partial digestion with RNase T1 (G-specific cleavage) (see FIG. 6a). Composite plots of the fraction of RNA cleaved at specific sites versus the logarithm of the concentration of ligand (e.g. FIG. 7a) were generated to provide an estimate of the apparent KD. Fraction cleaved values were normalized relative to the highest and lowest cleavage values measured for each site.
ii. The thiM and thiC mRNA Leaders Serve as High-Affinity Metabolite Receptors. […] Arrows reflect the estimated concentration of TPP needed to attain half maximal modulation of RNA (apparent KD). […] The boxed data was generated using TPP with the truncated RNAs 91 thiM and 111 thiC. […] Details for the RNA probing analysis are similar to those described above in connection with FIG. 6A. The graphs were generated by ImageQuant software.

240 thiC RNA = experiment: In-line probing of 240 thiC RNA; assay type: binding, E. coli; settings: Example 2, FIG. 7A; read-out: apparent KD
Protocol: Some RNAs were subjected to no reaction, partial digestion with alkali, or partial digestion with RNase T1 (G-specific cleavage) (see FIG. 6a). Composite plots of the fraction of RNA cleaved at specific sites versus the logarithm of the concentration of ligand (e.g. FIG. 7a) were generated to provide an estimate of the apparent KD. Fraction cleaved values were normalized relative to the highest and lowest cleavage values measured for each site. […] Reactions were conducted and analyzed as described in above for FIG. 6A. […] The truncated RNA 111 thiC is boxed. Nucleotides enclosed in boxes identify an alternative pairing.

[10] = target: TPP-binding domain of A. thaliana (128-nucleotide RNA); experiment: In-line probing of Arabidopsis TPP-binding domain; design: species or system Arabidopsis thaliana; settings: read-out: apparent dissociation constant (KD)
165 thiM RNA = assay type: binding, E. coli; settings: for Kd: read-out: apparent KD
Description: as §1
NR, ^−OH and T1 represent RNAs subjected to no reaction, partial digestion with alkali, or partial digestion with RNase Tl (G-specific cleavage), respectively. Product bands representing cleavage after selected G residues are numbered and identified by filled arrowheads. The asterisk identifies modulation of RNA structure involving the Shine-Dalgarno (SD) sequence. Gel separations were analyzed using a phosphorimager (Molecular Dynamics) and quantitated using ImageQuant software.

80 ydhL RNA = experiment: In-line probing of 80 ydhL RNA; assay type: binding, B. subtilis
[11] = system: xpt-pbuX 5′-UTR fused to β-galactosidase reporter gene; experiment: xpt-lacZ β-galactosidase reporter expression; assay type: cell-based, B. subtilis; settings: wild-type xpt construct
[12] = system: wild-type ydhL riboswitch fused to β-galactosidase reporter gene; experiment: ydhL-lacZ β-galactosidase reporter expression; assay type: cell-based, B. subtilis
201 xpt RNA = experiment: In-line probing of 201 xpt RNA; settings: read-out: apparent KD; limit of detection of the assay
93 xpt RNA [13] = experiment: In-line probing of 93 xpt RNA; assay type: binding, B. subtilis
[14] = system: xpt riboswitch variant with the C to U mutation at position 74, reporter construct; assay type: cell-based, B. subtilis
purE RNA = experiment: In-line probing of purE RNA; assay type: binding, B. subtilis; settings: 1 μM ligand
93 xpt RNA [15] = experiment: Equilibrium dialysis with 93 xpt RNA; assay type: binding, B. subtilis
[16] = target: purine-binding aptamer from a pool of random-sequence RNAs; settings: cited from earlier work

Compound: C/C1=C2/[N-]C([C@H](CC(N)=O)[C@@]2(C)CCC(=O)NC[C@@H](C)OP(=O)([O-])O[C@H]2[C@@H](O)[C@@H](n3cnc4cc(C)c(C)cc43)O[C@@H]2CO)[C@]2(C)N=C(/C(C)=C3N=C(/C=C4N=C1[C@@H](CCC(N)=O)C\4(C)C)[C@@H](CCC(N)=O)[C@]\3(C)CC(N)=O)[C@@H](CCC(N)=O)[C@]2(C)CC(N)=O.[CH2-][C@H]1O[C@@H](n2cnc3c(N)ncnc32)[C@@H](O)[C@@H]1O.[Co+3] [AdoCbl, 5′-deoxy-5′-adenosylcobalamin]
Kd [1]: ~5 µM | restoration of equal tritium distribution by excess unlabeled compound ([2]; 5,000 pmoles unlabeled compound added to chamber b): restores equal distribution of tritium | cpm ratio (chamber b relative to a) ([2]; 3H-AdoCbl, mRNA leader in chamber b): ~2 | Kd [3]: ~0.3 µM | regulatory effector function on reporter gene inside cells (btuB leader-lacZ fusion): down regulation of a reporter gene

Kd (ribD RNA): ~0.005 µM
Compound: Cc1cc2nc3c(=O)[nH]c(=O)nc-3n(C[C@H](O)[C@H](O)[C@H](O)COP(=O)(O)O)c2cc1C [FMN, flavin mononucleotide]
transcription termination at the intrinsic terminator (ribD leader region): specifically induced by FMN

Compound: NCCCC[C@H](N)C(=O)O [L-lysine]
repression of β-galactosidase reporter expression [4]: exhibits ligand-dependent modulation | terminated product relative to total transcription yield (lysC 5′-UTR template): ~76% | Kd (179 lysC RNA [5]; 1 μM RNA, 3H-lysine 50 nM to 2.5 μM, read-out: apparent KD (Scatchard plot)): ~1 µM | fraction of tritiated L-lysine in chamber b (179 lysC RNA [5]; 10 μM 179 lysC in chamber b, 50 nM 3H-lysine, 10 hr): ~0.8 | restoration of equal tritium distribution by unlabeled competitor (179 lysC RNA [5]; 50 μM unlabeled compound, additional 10 hr): symmetric distribution of tritium is restored | Kd (179 lysC RNA [6]): ~1 µM | Kd [7]: ~500 µM

Compound: C[S+](CC[C@H](N)C(=O)O)C[C@H]1O[C@@H](n2cnc3c(N)ncnc32)[C@H](O)[C@@H]1O (some centres unmarked) [SAM, S-adenosylmethionine]
Kd (124 yitJ RNA): ~0.004 µM | termination product (metI leader construct; 50 μM effector, wild-type metI): ~75% | additional yield in transcription termination (metI leader construct; mutant Mabc (six mutations)): ~20% | affinity poorer than that of yitJ [8]: more than 2 orders of magnitude | Kd (251 yitJ RNA): ~0.2 µM | transcription termination [9]: modest transcription termination

Compound: Cc1ncc(C[n+]2csc(CCO[P@](=O)(O)OP(=O)(O)O)c2C)c(N)n1 [TPP, thiamine pyrophosphate]
improvement of apparent KD compared to the longer construct (165 thiM) (91 thiM RNA): approximately 20 fold | Kd (240 thiC RNA): 0.1 µM | Kd [10]: ~0.05 µM | structure modulation (165 thiM RNA; 40 μM each compound): induce modulation | Kd (165 thiM RNA; Example 2, FIG. 7A): 0.6 µM | Kd (165 thiM RNA; thiM RNA as reported in Example 3 (FIG. 13)): 0.5 µM

Compound: Nc1nc2nc[nH]c2c(=O)[nH]1 [guanine]
binding / structural modulation (80 ydhL RNA): remains unchanged | repression of β-galactosidase reporter expression [11]: repressed by guanine; also recorded: causes repression of β-galactosidase expression | β-galactosidase activity [12]: very low β-galactosidase activity | Kd (201 xpt RNA): ≤ 0.005 µM | modulation of spontaneous cleavage pattern (93 xpt RNA [13]; 1 μM (adenine as much as 1 mM), 93 xpt and 201 xpt): undergo significant alteration | Kd (93 xpt RNA [13]; wild-type xpt RNA, Example 8 (FIG. 39a), read-out: apparent KD): ≤ 0.005 µM | regulation of reporter expression [14]: loss of regulation upon addition of guanine | allosteric response (purE RNA): responds allosterically to guanine | tritiated guanine co-localized with RNA (93 xpt RNA [15]; 100 nM 3H-guanine, 300 nM RNA): greater than 90% | redistribution of 3H-guanine by excess unlabeled competitor (93 xpt RNA [15]; 500 nM analog): redistributes | shift of distribution of tritiated ligand by RNA (93 xpt RNA [15]; Example 8: 100 nM tritiated ligand, 3 μM RNA): able to shift the distribution of tritiated guanine | Kd [16]: 1.3 µM
